According to publication PMC7725506, “Functional Diversification of SRSF Protein Kinase to Control Ubiquitin-Dependent Neurodevelopmental Signaling” (Developmental Cell, 2020):

Experiments:
[1] = system: RNF12 phospho-Ser214; test: RNF12 SR-motif phosphorylation in mESCs, immunoblotting for RNF12 phospho-Ser214 and total RNF12; assay type: cell-based, mouse; conditions: 10 μM, 4 h
[2] = system: RNF12 SR-motif; test: RNF12 SR-motif phosphorylation in mESCs by phos-tag immunoblotting; assay type: cell-based, mouse; conditions: 10 μM, 4 h
Source text: RNF12 4xSA = S212A/S214A/S227A/S229A. (B) Rlim^−^/y mESCs were transfected with the indicated RNF12 constructs and lysates treated with λ-phosphatase and analyzed by phos-tag immunoblotting for RNF12. Unphosphorylated recombinant RNF12 is included as a control. […] RNF12 4xSA is included as an unphosphorylated control. […] (F) Phosphorylated peptides detected by mass spectrometry following in vitro phosphorylation of RNF12 by SRPK1. pS, phospho-serine. (G) Autoradiography of RNF12 WT or S212A/S214A/S227A/S229A (4xSA) following a radioactive kinase reaction with SRPK1, SRPK2, or SRPK3. RNF12 protein is detected by Coomassie staining. (H) Srpk1^+/+ and Srpk1^−/− mESCs were transfected with control or SRPK2 siRNA and RNF12 SR-motif phosphorylation analyzed by phos-tag immunoblotting for RNF12. SRPK2, SRPK1, RNF12, and ERK1/2 levels were determined by immunoblotting. Related to Figure S2; Tables S3 and S4.
All compounds were diluted in DMSO and mESCs treated with 10 μM inhibitor for 4 h prior lysis unless indicated otherwise. […] For proteasome inhibition mESCs were treated with 10 μM MG132 (Sigma Aldrich) for 6 h. All chemicals are listed in the Key Resource Table.
Phos-tag analyses were performed by loading protein samples containing 10 mM MnCl2 in 8% polyacrylamide gels containing 50 μM Phos-tag reagent (MRC-PPU reagents and services) and 0.1 mM MnCl2. After electrophoresis, gels were washed three times for 10 mins in Transfer buffer (48 mM Tris, 39 mM Glycine, 20% Methanol) supplemented with 20 mM EDTA. Proteins were then transferred to Nitrocellulose membranes, blocked and probed with the indicated antibodies. All protein signals were quantified using Image Studio (LI-COR Biosciences) or Image Lab software (Bio-Rad). Primary antibodies are listed in the Key Resource Table. […]
SR-motif phosphorylation of HA-immunoprecipitated RNF12 analysed by phos-tag immunoblotting.
HA-RNF12 levels are shown as a control. Fully phosphorylated (4-P) and unphosphorylated (0-P) RNF12 SR-motif is indicated by open (○) and closed (●) circles respectively.
Data are represented as mean ± S.D. (n=3). (C) RNF12 expressing mESCs were treated with 10 […]
immunoblotting. HA-RNF12 and ERK1/2 levels are shown as a control. (D) RNF12 expressing […]
5 h (+ wash-out). RNF12 phosphorylation was analysed via phos-tag immunoblotting. ERK1/2 levels are shown as a loading control. (E) Multiple Srpk1-/- and Srpk2-/- mESC clones were […]

[3] = system: RNF12 4xSA-KI mESCs; test: RNF12 localization by immunofluorescence in RNF12 4xSA-KI mESCs; assay type: cell-based, mouse; conditions: 30 nM, 6 h
Description: Figure 3 SRPK Phosphorylation of RNF12 Regulates Nuclear Anchoring and E3 Ubiquitin Ligase Activity (A) RNF12 localization in wild-type knockin (WT-KI), SR-motif phosphorylation site knockin (4xSA-KI), or SR-motif deletion (ΔSR-KI) mESCs was determined by immunofluorescence. Scalebar: 20 μm (Left). Quantification of the Nucleus/cytosol fluorescence intensity ratio (Right). Data represented as mean ± SEM. […] (^∗∗∗∗) p < 0.0001. (B) RNF12 4xSA-KI mESCs were treated with 30 nM leptomycin B for 6 h and RNF12 localization analyzed by immunofluorescence. Scale bar: 20 μm (Top). Quantification of the nucleus/cytosol fluorescence intensity ratio (Bottom). […] (^∗∗∗∗) p < 0.0001. (C) FLAG-tagged SRPK1 and SRPK2 were expressed in mESCs and localization of SRPKs and RNF12 analyzed by immunofluorescence. Scale bar: 20 μm (Left). Quantification of the cytosol/nucleus fluorescence intensity ratio (Right). […] (^∗∗∗∗) p < 0.0001. […] RNF12, REX1 and ERK1/2 were detected by immunoblotting. (^∗) indicates non-specific signal. (E) REX1 levels were analyzed in RNF12 WT-KI, 4xSA-KI, ΔSR-KI, and W576Y-KI mESCs by immunoprecipitation followed by immunoblotting. ERK1/2 levels were detected by immunoblotting. (F) REX1 half-life was determined in RNF12 WT-KI, 4xSA-KI, ΔSR-KI, and W576Y-KI mESCs by immunoblotting. (Top) quantification of HA-REX1 protein levels normalized to ERK1/2 and calculated protein half-life (Bottom). […]

[4] = molecular target: SRPK1 (Homo sapiens, UniProt Q96SB4); assay type: biochemical; conditions: read-out: IC50, inhibition of RNF12 phosphorylation by SRPK1
Description: Cells were lysed, and 1.5 mg of protein immunoprecipitated with 2 μg of SRPK1 or SRPK2 antibodies (BD Biosciences). Immunoprecipitates were then washed with lysis buffer supplemented with 500 mM NaCl and half of the sample was resuspended in loading buffer. The remainder was subjected to in vitro phosphorylation assay containing 0.5 μg RNF12 and 2 mM ATP in kinase buffer (50 mM Tris-HCl [pH 7.5], 0.1 mM EGTA, 10 mM MgCl2, 2 mM DTT) and incubated at 30°C for 30 min. […] For radioactive in vitro kinase assays, reactions were supplemented with 1 μCi γ-^32P ATP. Reactions were incubated at 30°C for 30 min in presence or absence of inhibitor as indicated and samples subjected to polyacrylamide electrophoresis and immunoblot or Coomassie blue staining and signal detected via ECL, infrared detection or autoradiography.
Supplemental Figure Legends
(Related to Figure 1). (A) Wild-type (WT) mESCs were analysed for protein copy number by absolute quantitative proteomics. […]
Data are represented as mean ± S.E.M. (n=3). […] ND = not detected. (B) Inhibition of RNF12 phosphorylation in vitro by SRPK1 and SRPK2 in the presence of varying concentrations of the indicated SRPK inhibitors was determined by immunoblotting for RNF12 phospho-Ser214 (Left). […] Immunoblots were quantified to generate SRPK inhibitor dose-response curves for inhibition of RNF12 phosphorylation by SRPK1 and SRPK2 in vitro (Right). […]

[5] = system: Foxp1 exon 16-16b alternative splicing switch; test: Foxp1 exon 16-16b incorporation in mESCs by quantitative RT-PCR; assay type: cell-based, mouse; conditions: 8 h
Description: SRSF phosphorylation, SRPK1, SRPK2, and ERK1/2 levels were determined by immunoblotting. Expected positions of SRSFs that are not detected are shown in gray. Quantification of SRSF phosphorylation (Right). Data represented as mean ± SEM (n = 4). […] Neuro 2a is a control for exon 16b exclusion in differentiated cells (Bottom). Data represented as mean ± SEM (n = 3). […] Exon 16 inclusion: (^∗∗∗∗) p < 0.0001, Exon 16b inclusion: (^∗) p = 0.0164, p = 0.0485, and p = 0.0489 (left to right). Ratio exon 16b/16: (^∗∗∗∗) p < 0.0001, (^∗∗∗) p = 0.0003. (C) SRPK substrates predicted using ScanProsite and grouped according to UniProt functions. (D) RNF12 phosphorylation sites detected by mass-spectrometry. LZL, leucine-zipper like; NLS, nuclear localization signal; NES, nuclear export signal; RING, RING E3 ubiquitin ligase catalytic domain. (E) CMGC family kinase copy numbers in mESCs determined by quantitative proteomics and represented using Kinoviewer. (F) CMGC kinase (200 mU) phosphorylation of the RNF12 SR-motif in vitro was determined by immunoblotting for RNF12 phospho-Ser214 and total RNF12. […] Normalized RNF12 Ser214 phosphorylation is shown below. Data represented as mean ± SEM (n = 3). […] RNF12 SR-motif phosphorylation was analyzed by immunoblotting for RNF12 phospho-Ser214 and RNF12. SRPK1 and SRPK2 levels are shown as a loading control, Related to Figure S1; Tables S1 and S2.
Total RNA extraction and reverse transcription was performed as described. Quantitative PCR reactions using SsoFast EvaGreen Supermix (Bio-Rad) were performed in a CFX384 real time PCR system (Bio-Rad). Relative RNA expression was calculated through the ΔΔCt method and normalised to Gapdh expression. Data was analysed in Excel (Microsoft) and statistical analysis performed in GraphPad Prism v7.0c software (GraphPad Software Inc.).

[6] = system: Ser-Arg rich splicing factors (SRSF); test: SRSF phosphorylation in mESCs, immunoblotting with phosphoepitope SR proteins antibody; assay type: cell-based, mouse; conditions: 10 μM, 4 h

Sequence of SRPK1 (Q96SB4 whole entry): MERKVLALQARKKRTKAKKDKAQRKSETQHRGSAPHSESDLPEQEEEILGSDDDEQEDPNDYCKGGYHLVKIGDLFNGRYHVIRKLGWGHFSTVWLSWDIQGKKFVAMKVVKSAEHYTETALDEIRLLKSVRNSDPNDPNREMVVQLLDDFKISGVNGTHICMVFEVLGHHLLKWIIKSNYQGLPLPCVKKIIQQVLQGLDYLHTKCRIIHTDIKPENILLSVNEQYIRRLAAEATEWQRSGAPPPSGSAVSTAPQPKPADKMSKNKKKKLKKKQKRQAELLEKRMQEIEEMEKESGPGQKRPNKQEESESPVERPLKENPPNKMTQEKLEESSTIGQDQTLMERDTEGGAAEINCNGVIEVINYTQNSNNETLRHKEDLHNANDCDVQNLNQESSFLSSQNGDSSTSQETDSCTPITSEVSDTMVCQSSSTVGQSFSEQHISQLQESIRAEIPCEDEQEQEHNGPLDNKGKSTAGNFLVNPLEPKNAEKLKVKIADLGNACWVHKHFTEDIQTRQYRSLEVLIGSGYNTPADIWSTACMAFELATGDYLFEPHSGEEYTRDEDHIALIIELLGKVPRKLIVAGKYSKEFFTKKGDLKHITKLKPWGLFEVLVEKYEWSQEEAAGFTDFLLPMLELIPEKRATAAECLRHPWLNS

Compound | RNF12 phospho-Ser214/total ratio [1] | RNF12 SR-motif phosphorylation (phos-tag) [2] | also measured
O=C1NC(=NCc2cccs2)S/C1=C\c1ccc2ncccc2c1 [RO-3306] | some effect | little impact | –
CCC(=C/[C@H](C)C/C=C/C(C)=C/[C@@H](C)C(=O)[C@@H](C)[C@H](O)[C@@H](C)C/C(C)=C/C(=O)O)/C=C/[C@@H]1OC(=O)C=C[C@@H]1C [leptomycin B] | – | – | RNF12 4xSA localization [3]: primarily nuclear; nucleus/cytosol ratio of RNF12 4xSA (fluorescence intensity, mean) [3]: 4.08
CN1CC[C@H](c2c(O)cc(O)c3c(=O)cc(-c4ccccc4Cl)oc23)[C@H](O)C1 [flavopiridol] | some effect | little impact | –
O=C(Nc1cc(C(F)(F)F)ccc1N1CCCCC1)c1ccncc1 [SRPIN340] | – | – | IC50 [4]: 4.7 µM
COc1ccc2c(C)nc(Nc3nc(C)c(C)c(=O)[nH]3)nc2c1 [Madrasin] | – | – | Foxp1 exon 16b-exon 16 inclusion ([5]; 10 μM): promotes inclusion of exon 16b over exon 16
CN1CCN(C(=O)C(C)(C)c2ccc(C(=O)Nc3cn4cc(-c5ccncc5)ccc4n3)cc2)CC1 [CLK-IN-T3] | little impact | minor effect | SRSF phosphorylation [6]: widespread, robust inhibition; Foxp1 exon 16b-exon 16 inclusion ([5]; 1 μM): promotes exon 16b inclusion while suppressing inclusion of exon 16
O=C(Nc1cc(C(F)(F)F)ccc1N1CCN(Cc2ccccn2)CC1)c1ccc(-c2ccncc2)o1 [SPHINX31] | – | minor effect | –
